Laboratory results taken from patent publication US6281344A, “Nucleic acid-protein fusion molecules and libraries” (priority 1999, dated 2001).

What was measured:
[1] = tested on: ribosome (eukaryotic peptidyl transferase / translocation) in reticulocyte lysate translation extract; assay: RNA-peptide fusion formation (35S Met template labeling) with the long myc template in reticulocyte lysate translation extract, effect of inhibitors; assay type: biochemical, rabbit; settings: long myc template (LP154), inhibitor concentration not given, 60 min
Excerpt: To confirm that the template labeling by ^35 S Met was a consequence of translation, and more specifically resulted from the peptidyl transferase activity of the ribosome, the effect of various inhibitors on the labeling reaction was examined. The specific inhibitors of eukaryotic peptidyl transferase, anisomycin, gougerotin, and sparsomycin (Vazquez, Inhibitors of Protein Biosynthesis (Springer-Verlag, N.Y.), pp. 312 (1979)), as well as the translocation inhibitors cycloheximide and emetine (Vazquez, Inhibitors of Protein Biosynthesis (Springer-Verlag, N.Y.), pp. 312 (1979)) all decreased RNA-peptide fusion formation by ~95% using the long myc template and a reticulocyte lysate translation extract.
Reticulocyte Translation Reactions. Translation reactions were performed either with purchased kits (Novagen, Madison, Wis.) or using extract prepared according to published protocols (Jackson and Hunt, Meth. Enzymol. 96:50 (1983)). Reticulocyte-rich blood was obtained from Pel-Freez Biologicals (Rogers, […].). In both cases, the reaction conditions were those recommended for use with Red Nova Lysate (Novagen). Reactions consisted of 100 mM KCl, 0.5 mM MgOAc, 2 mM DTT, 20 mM HEPES pH 7.6, 8 mM creatine phosphate, 25 µM in each amino acid (with the exception of methionine if ^35 S Met was used), and 40% v/v of lysate. Incubation was at 30° C. for 1 hour. Template concentrations depended on the experiment but generally ranged from 50 nM to 1 μM with the exception of 43-P (FIG. 6H) which was 4 μM.

ribosome A site = settings: binding the A site, accepting the growing peptide chain, and falling off the ribosome; cited from earlier work

SMILES | decrease of RNA-peptide fusion formation [1] | Kd (ribosome A site) [µM]
COc1ccc(C[C@H]2NC[C@H](O)[C@H]2OC(C)=O)cc1 [anisomycin] | ~ 95% | –
C[C@@H]1C[C@@H]([C@H](O)CC2CC(=O)NC(=O)C2)C(=O)[C@@H](C)C1 [cycloheximide] | ~ 95% | –
CC[C@H]1CN2CCc3cc(OC)c(OC)cc3[C@@H]2C[C@@H]1C[C@H]1NCCc2cc(OC)c(OC)cc21 [emetine] | ~ 95% | –
CNCC(=O)NC(CO)C(=O)NC1C(C(N)=O)OC(n2ccc(N)nc2=O)C(O)C1O (stereo not drawn) [gougerotin] | ~ 95% | –
COc1ccc(C[C@H](N)C(=O)N[C@H]2[C@@H](O)[C@H](n3cnc4c(N(C)C)ncnc43)O[C@@H]2CO)cc1 [puromycin] | – | 100
CSC[S@+]([O-])C[C@H](CO)NC(=O)/C=C/c1c(C)[nH]c(=O)[nH]c1=O [sparsomycin] | ~ 95% | –
